Experimental data reported in patent US20250107999A1, “INJECTABLE FORMULATION CONTAINING ISOXAZOLINE DERIVATIVE” (LG CHEM, LTD., priority 2022, published 2025).

How the values were obtained:
[1] = Confirmation of API solubility according to solvent pH (24 hours, HPLC); type: physicochemical
[2] = API stability in solution (solvent of Example 23, HPLC); type: physicochemical; settings: 10 mg/ml API
Procedure: Therefore, in order to measure the content of the active form in the solution after preparing the injection, 10 mg/ml of API was dissolved using the solvent of Example 23, and the concentration and purity of the active API (Compound of Formula 2), which changed over time, were measured using HPLC until 60 minutes after dissolution.

caspase = assay: Caspase inhibitory activity; type: biochemical
[3] = Change in content of active compound of Formula 2 over time according to solvent pH (FIG. 1); type: physicochemical
Procedure: In addition, after dissolving the API in solvents, the change in the content of the active compound of Formula 2 was measured over time.

solubility ([1]; acidic solvents with a pH of 4 or less)	solubility ([1]; basic solvents with a pH of 7.5 or more)	solubility ([1]; weakly acidic solvents with a pH of 6 or more)	Peak Area Active ([2]; 30 min after mixing)	Peak Area Inactive ([2]; 30 min after mixing) [%]	Peak Area Active ([2]; 60 min after mixing) [%]	Peak Area Inactive ([2]; 60 min after mixing) [%]	conversion of compound of Formula 2 into compound of Formula 3 ([3]; acidic solvent)	conversion of compound of Formula 2 into compound of Formula 3 ([3]; basic solvent with a neutral pH or higher)	SMILES	caspase inhibitory activity (caspase)
hardly soluble	well soluble	began to dissolve	about 95.5%	4.33	94.18	5.59			CC(C)[C@@]1(C(=O)NC2CC(=O)OC2(O)CF)CC(c2nccc3ccccc23)=NO1 (stereo in doubt) [compound of Formula 1, (R)-N-((2S,3S)-2-(fluoromethyl)-2-hydroxy-5-oxotetrahydrofuran-3-yl)-5-isopropyl-3-(isoquinolin-1-yl)-4,5-dihydroisoxazol-5-carboxamide]	
									CC(C)[C@@]1(C(=O)N[C@@H](CC(=O)O)C(=O)CF)CC(c2nccc3ccccc23)=NO1 [compound of Formula 2]	active form
							hardly produced	rapidly produced	CC(C)[C@@]1(C(=O)N[C@H](CC(=O)O)C(=O)CF)CC(c2nccc3ccccc23)=NO1 [compound of Formula 3]	does not show caspase inhibitory activity
